# Results taken from US5462926A (Biomeasure, Inc., priority 1993, dated 1995).
# Where two headings read alike, the source gives them in different places. Where a SMILES comes first, the peptide text is derived from it. Bridges are numbered along the chain shown (N, C = ends). [ ]: non-standard residue; d: D form. 2Nal = N[C@@H](Cc1ccc2ccccc2c1)C(=O)O
# Tests used:
# mu opioid receptors = target: T1, mu opioid receptors (Rattus norvegicus, UniProt P33535); test: Mu opioid membrane assay, [3H]DAGO, rat forebrain membranes; assay type: binding; conditions: Cheng method; unit inferred; read-out: affinity, [3H]DAGO, Rat Forebrain membranes (mu opioid receptors)
# T1 construct: rat forebrain (TRH, mu and delta opioid membrane assays); from tissue; host or cells: rat forebrain membranes
# GRP receptor [1] = target: T2, GRP receptor (Rattus norvegicus, UniProt P52500); test: GRP membrane receptor assay, 125I-[Tyr4]Bn, AR 42J cell membranes; assay type: binding; parameters: endogenous in cells; host or cells: rat AR 42J pancreatic acinar tumor cell membranes; conditions: read-out: affinity, 125I-[Tyr4]Bn, AR 42J Cell Membranes (GRP receptors); Cheng method; unit inferred
# somatostatin receptors = target: T3, somatostatin receptors (Rattus norvegicus, UniProt P30680); test: Somatostatin membrane receptor assay, 125I-[Tyr11]SS-14, AR 42J cell membranes; assay type: binding; conditions: Cheng method; table prints no unit (b360 gives nM for a Table 4 value); read-out: affinity, 125I-[Tyr11]SS-14, AR 42J Cell Membranes (somatostatin receptors)
# T3 construct: endogenous in cells; host or cells: rat AR 42J pancreatic acinar tumor cell membranes
# NMB receptor [2] = target: T4, NMB receptor (Rattus norvegicus, UniProt P24053); test: NMB membrane receptor assay, 125I-NMB, rat olfactory bulb membranes; assay type: binding; parameters: Membranes were prepared from rat olfactory bulb (NMB membrane receptor assay); from tissue; host or cells: rat olfactory bulb membranes; conditions: Cheng method; unit inferred; read-out: affinity, 125I-NMB, Rat Olfactory bulb membranes (neuromedin B receptors)
# T4 sequence (P24053 1-390): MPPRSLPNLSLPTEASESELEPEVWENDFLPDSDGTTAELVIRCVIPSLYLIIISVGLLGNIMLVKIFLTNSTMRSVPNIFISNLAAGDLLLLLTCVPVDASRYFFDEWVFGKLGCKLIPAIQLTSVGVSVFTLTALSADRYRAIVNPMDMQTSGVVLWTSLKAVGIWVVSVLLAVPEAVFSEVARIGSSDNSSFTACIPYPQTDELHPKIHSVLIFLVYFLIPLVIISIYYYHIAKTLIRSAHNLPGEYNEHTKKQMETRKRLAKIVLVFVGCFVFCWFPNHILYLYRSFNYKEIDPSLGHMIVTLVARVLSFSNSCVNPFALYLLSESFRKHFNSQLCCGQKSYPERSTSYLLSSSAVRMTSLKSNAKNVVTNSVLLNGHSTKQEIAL
# [3] = target: T5, GRP receptors on rat pancreatic acini (Rattus norvegicus, UniProt P52500); test: Binding of 125I-[Tyr4]bombesin to pancreatic acini; conditions: read-out: Ki 125I-[Tyr4]Bn Binding, GRP Receptor, Rat Pancreatic Acini; Ki by Cheng method
# T5 construct: from tissue; host or cells: dispersed pancreatic acini
# Excerpt: Nonsaturable binding was<10% of total binding in all experiments.
# NMB receptor [4] = target: T4, NMB receptor; test: [3H]inositol phosphates in NMB-R transfected cells (alone or NMB-stimulated); assay type: cell-based; parameters: a full length NMB-preferring bombesin receptor clone generated from rat esophagus; expressed in transfected cells; conditions: NMB-R transfected cells; for IC50: 3 nM NMB
# Outline: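 BALB 3T3 cells stably expressing rat NMB receptor, labelled 48 h at 37 °C with 100 μCi/ml myo-[3H]inositol, preincubated 15 min in buffer with 10 mM LiCl, then exposed 60 min at 37 °C to agonists or to 3 nM NMB plus antagonists. Total [3H]inositol phosphates isolated by anion-exchange chromatography.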
# rat NMB receptor = target: T6, rat NMB receptor (Rattus norvegicus, UniProt P24053); test: Binding of 125I-[D-Tyr0]NMB to NMB-R transfected BALB 3T3 cells
# T6 construct: a full length NMB-preferring bombesin receptor clone generated from rat esophagus; expressed in transfected cells
# T6 sequence (P24053 1-390): T4 sequence (P24053 1-390)
# GRP receptor [5] = target: T2, GRP receptor; test: Amylase release from rat pancreatic acini (alone or Bn-stimulated); assay type: cell-based; parameters: from tissue; host or cells: dispersed pancreatic acini
# Outline: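 Rat pancreatic acini incubated 30 min at 37° C without additives or with somatostatin octapeptide analog, Bn, NMB or combinations. Amylase release expressed as percent of total cellular amylase released during incubation; for inhibition, somatostatin analog (10 μM) tested on 0.3 nM Bn-stimulated release.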
# T2 sequence (P52500 whole entry): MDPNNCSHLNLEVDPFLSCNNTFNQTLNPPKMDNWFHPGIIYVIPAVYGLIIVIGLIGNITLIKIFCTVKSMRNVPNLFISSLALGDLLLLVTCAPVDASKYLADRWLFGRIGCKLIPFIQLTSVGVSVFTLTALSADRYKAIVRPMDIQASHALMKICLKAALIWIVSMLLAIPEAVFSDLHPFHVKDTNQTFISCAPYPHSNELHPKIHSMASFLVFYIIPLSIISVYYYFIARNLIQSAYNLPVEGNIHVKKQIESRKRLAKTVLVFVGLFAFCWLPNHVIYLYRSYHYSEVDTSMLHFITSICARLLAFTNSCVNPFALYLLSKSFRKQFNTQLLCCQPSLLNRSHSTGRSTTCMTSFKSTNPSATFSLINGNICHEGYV
# T5 sequence (P52500 whole entry): as above
# T1 sequence (P33535 whole entry): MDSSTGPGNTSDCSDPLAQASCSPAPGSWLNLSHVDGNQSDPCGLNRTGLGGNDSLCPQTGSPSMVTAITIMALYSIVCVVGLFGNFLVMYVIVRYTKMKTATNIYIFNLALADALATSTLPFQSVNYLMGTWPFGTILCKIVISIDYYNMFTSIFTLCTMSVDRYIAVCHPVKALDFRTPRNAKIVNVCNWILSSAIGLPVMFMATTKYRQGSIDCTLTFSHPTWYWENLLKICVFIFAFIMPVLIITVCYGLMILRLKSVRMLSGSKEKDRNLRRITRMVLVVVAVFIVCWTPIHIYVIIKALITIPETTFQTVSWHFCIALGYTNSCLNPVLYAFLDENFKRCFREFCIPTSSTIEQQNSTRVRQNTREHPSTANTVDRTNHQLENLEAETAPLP
# T3 sequence (P30680 whole entry): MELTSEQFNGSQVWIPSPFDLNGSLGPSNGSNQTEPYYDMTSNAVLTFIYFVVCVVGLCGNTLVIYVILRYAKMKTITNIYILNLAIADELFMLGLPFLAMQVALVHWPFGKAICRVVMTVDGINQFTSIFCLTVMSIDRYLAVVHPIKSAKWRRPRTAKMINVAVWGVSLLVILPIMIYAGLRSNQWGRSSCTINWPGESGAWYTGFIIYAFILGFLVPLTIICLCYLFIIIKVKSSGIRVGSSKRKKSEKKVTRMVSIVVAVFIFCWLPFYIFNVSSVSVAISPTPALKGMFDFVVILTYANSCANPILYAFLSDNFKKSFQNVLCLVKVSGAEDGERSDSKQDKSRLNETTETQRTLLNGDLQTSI
structure (smiles),measurement,setting,value
"C[C@@H](O)[C@@H]1NC(=O)[C@H](CCCCN)NC(=O)[C@@H](Cc2c[nH]c3ccccc23)NC(=O)[C@H](Cc2ccc(O)cc2)NC(=O)[C@@H](NC(=O)[C@H](N)Cc2ccccc2)CSSC[C@@H](C(=O)N[C@@H](Cc2ccc3ccccc3c2)C(N)=O)NC1=O [Analog #7, H2 -D-phe-Cys-Tyr-D-Trp-Lys-Thr-Cys-Nal-NH2] (H-[dF]CY[dW]KTC[2Nal]-NH2; disulfide 2-7)",Ki,mu opioid receptors,0.2 µM
same,Ki,GRP receptor [1],0.75 ± 0.01 µM
same,Ki,somatostatin receptors,0.86 ± 0.23 nM
same,Ki,NMB receptor [2],0.74 ± 0.16 µM
same,Ki,[3],31 ± 4.65 µM
same,IC50,"NMB receptor [4]; read-out: IC50 NMB-stimulated [3H]IP, NMB Receptor, Transfected Cells",36.2 ± 4.97 µM
same,IC50,"NMB receptor [4]; read-out: IC50 NMB-stimulated [3H]IP, Transfected Cells (values in μM)",> 10 µM
same,"[3H]IP, analog Alone (10 μM)","NMB receptor [4]; analog 10 μM alone, control 13 ± 3",15 ± 1 dym × 10^3
same,"[3H]IP, analog Plus NMB (3 nM)","NMB receptor [4]; analog 10 μM plus NMB 3 nM, NMB without analog 186 ± 58",99 ± 24 dym × 10^3
same,Ki,"rat NMB receptor; NMB-R transfected BALB 3T3 cells, Ki by Cheng method, read-out: Ki 125I-NMB Binding, NMB Receptor, Transfected Cells",4.36 ± 0.328 µM
same,"fold by which cyclo SS-octa is more potent than the analog, 125I-NMB binding",rat NMB receptor; NMB-R transfected cells,18 fold
same,Ki,"rat NMB receptor; NMB-R transfected cells, value or range given for a group, read-out: K1, 125I-NMB binding to NMB-R transfected cells (text)",3.9 to 4.4 µM
same,"Amylase Release, analog Alone (10 μM)","GRP receptor [5]; analog 10 μM alone, control 4 ± 1",3 ± 1 % total
same,"Amylase Release, analog Plus Bn (0.3 nM)","GRP receptor [5]; analog 10 μM plus Bn 0.3 nM, Bn without analog 15 ± 1",16 ± 1 % total
same,IC50,"GRP receptor [5]; read-out: IC50 Amylase Release, GRP Receptor, Rat Pancreatic Acini",> 10 µM
